Results as given in PubChem BioAssay AID2060509 (Molecular Pharmacology Branch, DTP, NCI, 2025).
Values joined by “and” are separate entries in the source; they are usually repeats but may differ in a detail not shown here. Equal values may be shown once.

Tested on: 485176-168-R4-J1-PDC spheroids with HUVEC/MSC, viability
Test: Anticancer human tumor 485176-168-R4-J1-PDC patient-derived pancreatic adenocarcinoma cell line growth inhibition [GQUAD]
Conditions: for viability, T/C: stronger effect = lower value
Excerpt: DNA G-quadruplex Stabilizer Agents in Combinations in Complex Spheroids
A high-throughput screen of multi-cell type tumor spheroids was designed to identify active combinations of DNA G-quadruplex stabilizer agents and targeted small molecules. Complex spheroids include a stromal component modeled by human endothelial cells (HUVEC) and fibroblasts modeled by human mesenchymal stem cells (MSCs). The concentration ranges selected for each drug and investigational agent were based upon clinically achievable concentrations if the clinical Cmax of the agent was known.
Compounds. The drugs and investigational agents: pidnarulex (CX-5461; NSC782164), APTO-253 (NSC789042), BRACO-19 (NSC847499), peposertib (NSC802822), ceralasertib (NSC780249), elimusertib (NSC800525), camonsertib (NSC841442), AZD-1390 (NSC803789), olaparib (NSC753686), talazoparib (NSC767125), ART-558 (NSC835418), sotorasib (NSC818433), MRTX-1133 (NSC836407), SN-38 (NSC673596), topotecan (NSC609699), etoposide (NSC141540), doxorubicin (NSC123127), gemcitabine (NSC613327), 5-fluorouracil (NSC19893), paclitaxel (NSC125973), vemurafenib (NSC761431), panobinostat (NSC761190), R-306465 (JNJ-16241199; NSC773264), adavosertib (NSC754352), TP-3654 (NSC805149), carboplatin (NSC241240), KSQ-4279 (NSC840948), and staurosporine (NSC755774) were obtained from the National Cancer Institute (NCI) Developmental Therapeutics Program Chemical Repository (34). The FDA-approved anticancer drug set is available from the NCI Developmental Therapeutics Program. […] The stock solutions were prepared in dimethyl sulfoxide (DMSO, Sigma-Aldrich, St. Louis, MO, cat. D2650) at 800-fold the tested concentration and stored at -70 degrees C prior to their use. All drugs and investigational agents were tested over a range starting from a high concentration at or near the clinical Cmax and decreasing in half-log increments. If the clinical Cmax for an agent had not been determined, the highest concentration tested was 10 microM.
2.3 Cell Culture. All cells were maintained in an incubator at 37 degrees C and 5% CO2 with 95% humidity. The PDC lines were cultured according to standard operating procedures established by the NCI PDMR. All PDCs were thawed and cultured in Matrigel-coated flasks prepared with a working solution of 1X Ham's F-12 nutrient mix, without supplementation (Invitrogen, cat. 11765054), 100 U/mL penicillin-streptomycin (Invitrogen, cat. 15140122), and 2.5% Matrigel (Corning Inc., cat. 354248) for the first three passages. The 857933-349-R-J2-PDC line was cultured in 6C/Colon 1B media, which includes advanced DMEM/F-12 (Thermo Fisher Scientific, cat. 12634028), 10 mM HEPES (Thermo Fisher Scientific, cat. 15630080), 1X GlutaMAX supplement (Thermo Fisher Scientific, cat. 35050061), 0.1 mg/mL primocin (InvivoGen, cat. ant-pm-2), 10% defined fetal bovine serum, heat inactivated (HyClone Laboratories Inc., cat. SH30070.03HI), 50% L-WRN conditioned media (ATCC, cat. CRL-3276), 1.25 mM N-Acetyl-L-cysteine (Sigma-Aldrich, cat. A9165), 10 mM nicotinamide (Sigma-Aldrich, cat. N0636), 1X B-27 supplement (Thermo Fisher Scientific, cat. 17504044), 1X N-2 supplement (Thermo Fisher Scientific, cat. 17502048), 10 microM Y-27632 dihydrochloride (Tocris Bioscience, cat. 1254), and 50 ng/mL human EGF recombinant protein (Thermo Fisher Scientific, cat. PHG0311). The 485176-168-R4-J1-PDC line was cultured in Panc media, which includes all 6C/Colon 1B media components plus 100 ng/mL human FGF-10 (Thermo Fisher Scientific, cat. 100-26), 500 nM SB-431542 (Selleckchem, cat. S1067), and gastrin (Tocris, cat. 3006).
[…]

[1] = curve of first compound, second compound 0.0316 µM
[2] = curve of first compound, second compound 0.1 µM
[3] = curve of first compound, second compound 0.316 µM
[4] = curve of first compound, second compound 1 µM
[5] = curve of first compound, second compound 3.16 µM
[6] = curve of first compound, second compound 10 µM
[7] = second compound 0.0316 µM, first compound 0.0316 µM
[8] = second compound 0.0316 µM, first compound 0.316 µM
[9] = second compound 0.1 µM, first compound 0.0316 µM
[10] = second compound 0.1 µM, first compound 0.316 µM
[11] = second compound 0.316 µM, first compound 0.0316 µM
[12] = second compound 0.316 µM, first compound 0.316 µM
[13] = second compound 1 µM, first compound 0.0316 µM
[14] = second compound 1 µM, first compound 0.316 µM
[15] = second compound 3.16 µM, first compound 0.0316 µM
[16] = second compound 3.16 µM, first compound 0.316 µM
[17] = second compound 10 µM, first compound 0.0316 µM
[18] = second compound 10 µM, first compound 0.316 µM
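Also: spheroids exposed to compounds for seven days before readout.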
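For viability, T/C in this document: percent viability relative to DMSO vehicle control wells as 100%.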

Cn1ncnc1[C@H]1c2n[nH]c(=O)c3cc(F)cc(c23)N[C@@H]1c1ccc(F)cc1 + Cc1[nH]c2ccc(F)cc2c1-c1nc2c3cccnc3c3ncccc3c2[nH]1
IC50 [1]: > 316 nM
IC50 [2]: > 316 nM
IC50 [3]: > 316 nM
IC50 [4]: > 316 nM
IC50 [5]: > 316 nM
IC50 [6]: > 316 nM
viability, T/C (second compound 0.0316 µM, first compound 0.000999 µM): 109%
viability, T/C (second compound 0.0316 µM, first compound 0.00316 µM): 80.7%
viability, T/C (second compound 0.0316 µM, first compound 0.00999 µM): 103%
viability, T/C [7]: 86.6%
viability, T/C (second compound 0.0316 µM, first compound 0.0999 µM): 91.8%
viability, T/C [8]: 109%
viability, T/C (second compound 0.1 µM, first compound 0.000999 µM): 90.9%
viability, T/C (second compound 0.1 µM, first compound 0.00316 µM): 92.2%
viability, T/C (second compound 0.1 µM, first compound 0.00999 µM): 88.3%
viability, T/C [9]: 109%
viability, T/C (second compound 0.1 µM, first compound 0.0999 µM): 93.4%
viability, T/C [10]: 99.5%
viability, T/C (second compound 0.316 µM, first compound 0.000999 µM): 78.3%
viability, T/C (second compound 0.316 µM, first compound 0.00316 µM): 95.6%
viability, T/C (second compound 0.316 µM, first compound 0.00999 µM): 101%
viability, T/C [11]: 117%
viability, T/C (second compound 0.316 µM, first compound 0.0999 µM): 97.9%
viability, T/C [12]: 84.4%
viability, T/C (second compound 1 µM, first compound 0.000999 µM): 77.2%
viability, T/C (second compound 1 µM, first compound 0.00316 µM): 90.2%
viability, T/C (second compound 1 µM, first compound 0.00999 µM): 94.3%
viability, T/C [13]: 90.5%
viability, T/C (second compound 1 µM, first compound 0.0999 µM): 87.2%
viability, T/C [14]: 88.9%
viability, T/C (second compound 3.16 µM, first compound 0.000999 µM): 85.5%
viability, T/C (second compound 3.16 µM, first compound 0.00316 µM): 89.3%
viability, T/C (second compound 3.16 µM, first compound 0.00999 µM): 86.2%
viability, T/C [15]: 79.7%
viability, T/C (second compound 3.16 µM, first compound 0.0999 µM): 96.4%
viability, T/C [16]: 85.1%
viability, T/C (second compound 10 µM, first compound 0.000999 µM): 106%
viability, T/C (second compound 10 µM, first compound 0.00316 µM): 86.2%
viability, T/C (second compound 10 µM, first compound 0.00999 µM): 89.5%
viability, T/C [17]: 77.9%
viability, T/C (second compound 10 µM, first compound 0.0999 µM): 91.7%
viability, T/C [18]: 78.5%

CC1COCCN1c1cc(C2(O)CC3CCC(C2)O3)c2cnn(-c3ccn[nH]3)c2n1 (stereo unspecified)
viability, T/C (compound 0.0316 µM): 68% and 73.8% and 81.9%
viability, T/C (compound 0.1 µM): 32.8% and 40.7% and 53.4%
viability, T/C (compound 0.316 µM): 11.7% and 19.7% and 16.1%
viability, T/C (compound 1 µM): 8.14% and 9.02% and 10.2%
viability, T/C (compound 3.16 µM): 8.91% and 11.7% and 10.2%
viability, T/C (compound 10 µM): 9.41% and 8.55% and 9.34%
IC50 (curve of compound): 57 nM and 72.7 nM and 111 nM

Cc1cccc(N(C)C(=O)C2C(O)CCN2c2nc(C)cc(C(F)(F)F)c2C#N)c1 (stereo unspecified) + Cc1[nH]c2ccc(F)cc2c1-c1nc2c3cccnc3c3ncccc3c2[nH]1
IC50 [1]: > 10000 nM
IC50 [2]: > 10000 nM
IC50 [3]: > 10000 nM
IC50 [4]: > 10000 nM
IC50 [5]: > 10000 nM
IC50 [6]: > 10000 nM
viability, T/C [7]: 102%
viability, T/C (second compound 0.0316 µM, first compound 0.1 µM): 95.1%
viability, T/C [8]: 99.2%
viability, T/C (second compound 0.0316 µM, first compound 1 µM): 89%
viability, T/C (second compound 0.0316 µM, first compound 3.16 µM): 94.1%
viability, T/C (second compound 0.0316 µM, first compound 10 µM): 99.2%
viability, T/C [9]: 85.9%
viability, T/C (second compound 0.1 µM, first compound 0.1 µM): 95.4%
viability, T/C [10]: 93.1%
viability, T/C (second compound 0.1 µM, first compound 1 µM): 99%
viability, T/C (second compound 0.1 µM, first compound 3.16 µM): 109%
viability, T/C (second compound 0.1 µM, first compound 10 µM): 114%
viability, T/C [11]: 93.1%
viability, T/C (second compound 0.316 µM, first compound 0.1 µM): 108%
viability, T/C [12]: 103%
viability, T/C (second compound 0.316 µM, first compound 1 µM): 92.2%
viability, T/C (second compound 0.316 µM, first compound 3.16 µM): 93.7%
viability, T/C (second compound 0.316 µM, first compound 10 µM): 96.7%
viability, T/C [13]: 87%
viability, T/C (second compound 1 µM, first compound 0.1 µM): 100%
viability, T/C [14]: 84.6%
viability, T/C (second compound 1 µM, first compound 1 µM): 85.3%
viability, T/C (second compound 1 µM, first compound 3.16 µM): 99.8%
viability, T/C (second compound 1 µM, first compound 10 µM): 94.1%
viability, T/C [15]: 95.5%
viability, T/C (second compound 3.16 µM, first compound 0.1 µM): 97.1%
viability, T/C [16]: 84.5%
viability, T/C (second compound 3.16 µM, first compound 1 µM): 89.2%
viability, T/C (second compound 3.16 µM, first compound 3.16 µM): 95.1%
viability, T/C (second compound 3.16 µM, first compound 10 µM): 92.1%
viability, T/C [17]: 80.3%
viability, T/C (second compound 10 µM, first compound 0.1 µM): 92%
viability, T/C [18]: 80.1%
viability, T/C (second compound 10 µM, first compound 1 µM): 90%
viability, T/C (second compound 10 µM, first compound 3.16 µM): 78.2%
viability, T/C (second compound 10 µM, first compound 10 µM): 99.1%
